The term pIC50 denotes −log10 of the IC50, conventionally taken in molar units.

Structures are written as SMILES. pIC50: −log10 of the molar value. Where only a bound is given, the exact number is not on record here.

Assay [1] concerns the target ATP-dependent translocase ABCB1 (Homo sapiens, UniProt P08183). In words: Calcein-AM Assay. The method, then: (§1) MDCK-MDR1 or MDCK-MRP1 cells (50,000 cells per well) were seeded into black CulturePlate (96-well plate) with 100 μL medium and allowed to become confluentovernight. Hundred microliters of test compounds was solubilized in culture medium and added to monolayers. 96/wells plate was incubated at 37 °C for 30 min. Calcein-AM was added in 100 μL of phosphate-buffered saline (PBS) to yield a final concentration of 2.5 μm, and plate was incubated for 30 min. Each well was washed three times with ice-cold PBS.

The target of assay [2] is Multidrug resistance-associated protein 1 (Homo sapiens, UniProt P33527). Description: Calcein-AM Assay. The procedure: as §1
Multidrug resistance-associated protein 1, sequence (P33527 whole entry): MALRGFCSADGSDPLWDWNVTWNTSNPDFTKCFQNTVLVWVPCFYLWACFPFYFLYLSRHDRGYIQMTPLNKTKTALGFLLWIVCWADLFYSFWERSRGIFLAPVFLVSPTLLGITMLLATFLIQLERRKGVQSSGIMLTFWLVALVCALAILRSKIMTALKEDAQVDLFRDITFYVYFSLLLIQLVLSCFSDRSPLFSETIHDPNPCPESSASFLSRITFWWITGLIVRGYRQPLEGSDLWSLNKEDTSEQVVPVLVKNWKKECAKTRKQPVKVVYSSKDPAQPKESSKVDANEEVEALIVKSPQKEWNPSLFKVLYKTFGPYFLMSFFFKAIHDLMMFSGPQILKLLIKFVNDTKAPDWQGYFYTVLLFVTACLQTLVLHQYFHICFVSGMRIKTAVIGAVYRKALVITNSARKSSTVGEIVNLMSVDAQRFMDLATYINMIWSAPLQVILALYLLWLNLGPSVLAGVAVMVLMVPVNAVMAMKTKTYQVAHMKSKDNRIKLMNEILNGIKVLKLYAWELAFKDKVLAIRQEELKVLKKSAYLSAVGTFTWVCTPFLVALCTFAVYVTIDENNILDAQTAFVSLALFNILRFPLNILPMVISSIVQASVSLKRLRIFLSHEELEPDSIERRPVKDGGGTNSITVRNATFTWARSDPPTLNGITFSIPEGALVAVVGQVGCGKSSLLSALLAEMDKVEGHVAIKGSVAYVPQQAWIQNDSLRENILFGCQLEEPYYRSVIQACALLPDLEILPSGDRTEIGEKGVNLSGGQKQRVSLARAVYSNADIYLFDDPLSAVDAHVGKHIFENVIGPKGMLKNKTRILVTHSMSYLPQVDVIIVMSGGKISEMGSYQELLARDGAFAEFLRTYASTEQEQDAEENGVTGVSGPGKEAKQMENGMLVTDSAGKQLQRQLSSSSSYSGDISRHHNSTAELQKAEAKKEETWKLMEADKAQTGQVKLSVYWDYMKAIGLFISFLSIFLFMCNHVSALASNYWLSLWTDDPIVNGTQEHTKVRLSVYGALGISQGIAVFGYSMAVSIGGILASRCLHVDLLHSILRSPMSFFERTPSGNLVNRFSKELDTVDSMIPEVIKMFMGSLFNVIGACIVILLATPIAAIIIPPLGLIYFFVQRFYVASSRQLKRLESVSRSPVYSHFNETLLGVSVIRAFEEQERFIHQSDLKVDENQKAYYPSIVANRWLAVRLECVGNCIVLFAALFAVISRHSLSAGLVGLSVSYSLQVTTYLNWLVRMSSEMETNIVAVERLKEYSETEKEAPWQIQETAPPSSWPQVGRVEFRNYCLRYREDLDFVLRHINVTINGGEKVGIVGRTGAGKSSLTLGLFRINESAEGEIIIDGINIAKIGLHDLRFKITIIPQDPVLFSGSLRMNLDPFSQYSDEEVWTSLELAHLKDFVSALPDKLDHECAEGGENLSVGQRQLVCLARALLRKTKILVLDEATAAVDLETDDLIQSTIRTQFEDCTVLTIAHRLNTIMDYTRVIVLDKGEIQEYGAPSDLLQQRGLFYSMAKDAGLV

ATP-dependent translocase ABCB1, sequence (P08183 whole entry): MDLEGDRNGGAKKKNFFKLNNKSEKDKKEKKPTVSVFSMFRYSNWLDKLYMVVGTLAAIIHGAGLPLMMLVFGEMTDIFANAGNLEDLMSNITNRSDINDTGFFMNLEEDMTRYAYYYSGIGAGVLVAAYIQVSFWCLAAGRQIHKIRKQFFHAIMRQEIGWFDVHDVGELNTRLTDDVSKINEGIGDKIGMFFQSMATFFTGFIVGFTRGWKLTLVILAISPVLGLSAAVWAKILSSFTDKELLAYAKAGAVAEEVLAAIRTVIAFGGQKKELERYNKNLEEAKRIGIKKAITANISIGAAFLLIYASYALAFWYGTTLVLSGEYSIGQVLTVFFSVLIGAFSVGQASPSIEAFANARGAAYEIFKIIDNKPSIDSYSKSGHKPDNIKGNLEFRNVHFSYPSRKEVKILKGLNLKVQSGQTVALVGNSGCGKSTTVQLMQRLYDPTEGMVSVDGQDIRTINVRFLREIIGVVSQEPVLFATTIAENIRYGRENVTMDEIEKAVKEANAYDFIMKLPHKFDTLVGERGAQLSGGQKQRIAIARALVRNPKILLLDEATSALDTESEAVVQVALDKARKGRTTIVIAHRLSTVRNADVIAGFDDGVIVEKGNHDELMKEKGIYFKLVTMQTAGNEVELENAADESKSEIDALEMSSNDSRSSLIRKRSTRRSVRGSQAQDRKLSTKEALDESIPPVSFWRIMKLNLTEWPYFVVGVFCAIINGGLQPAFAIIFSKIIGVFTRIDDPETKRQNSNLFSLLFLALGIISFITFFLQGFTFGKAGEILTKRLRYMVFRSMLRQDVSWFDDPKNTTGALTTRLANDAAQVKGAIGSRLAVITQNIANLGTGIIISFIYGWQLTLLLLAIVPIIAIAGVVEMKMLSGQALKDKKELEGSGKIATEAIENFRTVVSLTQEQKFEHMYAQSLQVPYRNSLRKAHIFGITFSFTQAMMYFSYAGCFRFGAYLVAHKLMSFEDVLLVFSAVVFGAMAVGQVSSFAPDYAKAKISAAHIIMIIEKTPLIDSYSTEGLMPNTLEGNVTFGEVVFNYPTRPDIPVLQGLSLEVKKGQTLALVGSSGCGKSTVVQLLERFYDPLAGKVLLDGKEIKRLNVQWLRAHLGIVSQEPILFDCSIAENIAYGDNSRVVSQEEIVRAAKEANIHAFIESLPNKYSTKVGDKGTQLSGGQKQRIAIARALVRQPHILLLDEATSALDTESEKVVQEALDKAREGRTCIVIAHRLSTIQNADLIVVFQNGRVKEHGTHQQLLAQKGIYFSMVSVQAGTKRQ

`COc1cc(C(=O)Nc2ccc(Br)cc2)cc(OC)c1OC`: the pIC50 in assay [1] is 4.57.

For `COc1ccccc1NC(=O)c1ccc(OC)c(OC)c1OC` [2,3,4-Trimethoxy-N-(2-methoxy-phenyl)-benzamide (15)], the negative logarithm of the IC50 (pIC50) in assay [1] is 4.52; in assay [2] it was 4.15.

Take `COc1ccc(C(=O)Nc2ccccc2)c(OC)c1OC` [2,3,4-Trimethoxy-N-phenyl-benzamide (7)]: the negative-log IC50 (pIC50) in assay [1] and in assay [2] was < 4.00 each time.

With `COc1ccccc1NC(=O)c1cc(OC)c(OC)cc1OC` [2,4,5-Trimethoxy-N-(2-methoxy-phenyl)-benzamide (14)], the values for the pIC50 in assay [1] and in assay [2] were 5.45 and < 4.00, respectively.

Consider `COc1cc(OC)c(C(=O)Nc2ccccc2)cc1OC` [2,4,5-Trimethoxy-N-phenyl-benzamide (6)], for which the results for the pIC50 in assay [1] and in assay [2] were 4.66 and < 4.00, respectively.

In the case of `COc1cc(OC)c(C(=O)Nc2ccccc2OC)c(OC)c1` [2,4,6-Trimethoxy-N-(2-methoxy-phenyl)-benzamide (16)], the pIC50 is 4.32 in assay [1] and < 4.00 in assay [2].

In the case of `COc1cc(OC)c(C(=O)Nc2ccccc2)c(OC)c1` [2,4,6-Trimethoxy-N-phenyl-benzamide (8)], the pIC50 in assay [1] and in assay [2] was < 4.00 throughout.

For the compound `COc1ccccc1NC(=O)c1cc(OC)c(OC)c(OC)c1` [3,4,5-Trimethoxy-N-(2-methoxy-phenyl)-benzamide (13)], the negative logarithm of the IC50 (pIC50) is 4.58 in assay [1] and < 4.00 in assay [2].

Consider `COc1cc(C(=O)Nc2ccccc2)cc(OC)c1OC` [3,4,5-trimethoxy-N-phenylbenzamide (5)], for which the pIC50 in assay [1] is 4.15; in assay [2], < 4.00.

`COc1ccc(C(=O)Nc2ccc(Br)cc2)c(OC)c1OC` [N-(4-Bromo-phenyl)-2,3,4-trimethoxy-benzamide (11)]: the values for the pIC50 in assay [1] and in assay [2] were 4.71 and < 4.00, respectively.

In the case of `COc1cc(OC)c(C(=O)Nc2ccc(Br)cc2)cc1OC` [N-(4-Bromo-phenyl)-2,4,5-trimethoxy-benzamide (10)], the pIC50 in assay [1] is 5.03; in assay [2], < 4.00.

As for `COc1cc(OC)c(C(=O)Nc2ccc(Br)cc2)c(OC)c1` [N-(4-Bromo-phenyl)-2,4,6-trimethoxy-benzamide (12)], the negative-log IC50 (pIC50) in assay [1] was 4.12; in assay [2], < 4.00.
